The record followed here is patent US20260263459A1, “PHTHALAZINONE GSPT1 PROTEIN DEGRADING AGENT AND USE THEREOF” (CHINA PHARMACEUTICAL UNIVERSITY, priority 2023, published 2026).

For one assay, the target named is T1, GSPT1 protein (Homo sapiens, UniProt P15170+Q96SW2).
T1 construct: Whole cell lysates were prepared; endogenous in cells; host or cells: KG-1 cells
The assay is described as follows: Degradation of GSPT1 in KG-1 cells (Western blot). Type of assay: cell-based. The conditions noted are these: compound concentration 200 nM, 4 h incubation. The protocol: KG-1 cells were grown in an IMDM culture medium (containing 20% FBS). After centrifugation and counting, the cell concentration was adjusted. The cells were plated onto 6-well plates at 10^6 cells/well, with 1350 μL per well. 150 μL of DMSO and the test compounds of the present disclosure (compound concentration: 200 nM) were added. The plates were incubated in an incubator at 37° C. with 5% CO2 for 4 h. The cells were centrifuged, and the culture medium was discarded. PBS was added to wash the cells and then discarded. Whole cell lysates were prepared using a protease inhibitor cocktail (100×, Fude Biological), a protein phosphatase inhibitor cocktail (100×, Fude Biological), Super Nuclease (Beyotime), and a high-intensity RIPA lysis buffer (Thermo Fisher) and placed on ice for 30 min. After centrifugation, the cell debris precipitates were discarded, and the whole cell lysate supernatants were collected and transferred to new centrifuge tubes. After a BCA protein assay, samples were prepared using a 5× loading buffer (Thermo Fisher). The samples were subjected to protein electrophoresis separation in a 4-20% precast gel (SDS-PAGE gel), transferred to a PVDF membrane, blocked with 5% NFDM/TBST at room temperature for 1 h, incubated overnight with primary antibodies at 4° C., and incubated with a secondary antibody at room temperature for 2 h the next day. Signals were detected using a MINICHEMITM imaging system.
• Anti-GSPT1: Abcam ab234433 • Anti-beta actin: Fude Biological FD0060
• Anti-rabbit peroxidase-linked secondary antibody: Fude Biological FDG007
The degradation effects of the compounds on GSPT1 protein are shown in Table 1, where A represents a GSPT1 protein degradation percentage of no less than 70%, B represents a degradation percentage of less than 70% but no less than 30%, and C represents a degradation percentage of less than 30%.

In the next assay the test system is KG-1 cells. The assay is described as follows: Antiproliferative activity against KG-1 cells (CCK8). It counts as cell-based. The settings on record: Homo sapiens, 72 h incubation, CCK8 method. The protocol: KG-1 cells in the logarithmic growth phase were diluted in a culture medium (RPMI+10% FBS) and plated onto 96-well plates at 5000 cells/well, and the plates were incubated in an incubator at 37° C. with 5% CO2 for 24 h. 10 mM stock solutions of the test compounds of the present disclosure in DMSO were prepared and diluted with the culture medium to set 9 concentration gradients. 3 replicate wells were set for each concentration. After compound addition, the plates were incubated in an incubator at 37° C. with 5% CO2 for 72 h. The cell proliferation was assessed using the CCK8 method. The cell growth inhibition IC50 values of the compounds were determined using an enzyme labeling method. The IC50 values were calculated using GraphPad Prism 7 software.
The antiproliferative activity of the compounds against KG-1 cells is shown in Table 2, where A represents IC50≤30 nM, B represents 30<IC50≤300 nM, and C represents IC50>300 nM.
On the technique in general: Tetrazolium assays rely on reduction of a dye to a coloured formazan, in cell work by metabolically active cells.

T1 sequence (P15170 whole entry): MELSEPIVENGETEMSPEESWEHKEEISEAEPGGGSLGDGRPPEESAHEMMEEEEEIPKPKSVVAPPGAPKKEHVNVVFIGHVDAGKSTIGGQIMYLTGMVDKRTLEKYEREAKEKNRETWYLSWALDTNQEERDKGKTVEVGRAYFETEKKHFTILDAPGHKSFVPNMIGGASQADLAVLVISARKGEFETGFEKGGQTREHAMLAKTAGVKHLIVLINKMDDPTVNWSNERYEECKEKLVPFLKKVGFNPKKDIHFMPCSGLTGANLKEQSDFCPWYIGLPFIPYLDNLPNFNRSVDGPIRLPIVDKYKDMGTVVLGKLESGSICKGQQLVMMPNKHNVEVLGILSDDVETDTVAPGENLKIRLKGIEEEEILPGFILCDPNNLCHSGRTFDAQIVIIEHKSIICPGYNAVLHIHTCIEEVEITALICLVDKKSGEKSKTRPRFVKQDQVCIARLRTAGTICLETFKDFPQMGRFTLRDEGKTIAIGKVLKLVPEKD
T1 sequence (Q96SW2 whole entry): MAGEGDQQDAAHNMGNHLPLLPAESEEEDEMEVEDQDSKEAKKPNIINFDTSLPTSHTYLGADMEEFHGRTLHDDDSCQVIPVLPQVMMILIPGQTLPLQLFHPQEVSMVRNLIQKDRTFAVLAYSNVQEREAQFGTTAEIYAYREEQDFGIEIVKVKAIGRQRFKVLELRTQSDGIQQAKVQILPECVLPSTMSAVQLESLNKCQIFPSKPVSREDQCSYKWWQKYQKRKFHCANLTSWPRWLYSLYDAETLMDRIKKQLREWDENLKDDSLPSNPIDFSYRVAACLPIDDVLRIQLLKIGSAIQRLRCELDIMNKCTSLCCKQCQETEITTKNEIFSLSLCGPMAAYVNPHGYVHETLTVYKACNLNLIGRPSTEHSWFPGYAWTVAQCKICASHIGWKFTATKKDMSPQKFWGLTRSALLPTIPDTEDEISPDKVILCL
T1 sequence (Q16531 whole entry partner): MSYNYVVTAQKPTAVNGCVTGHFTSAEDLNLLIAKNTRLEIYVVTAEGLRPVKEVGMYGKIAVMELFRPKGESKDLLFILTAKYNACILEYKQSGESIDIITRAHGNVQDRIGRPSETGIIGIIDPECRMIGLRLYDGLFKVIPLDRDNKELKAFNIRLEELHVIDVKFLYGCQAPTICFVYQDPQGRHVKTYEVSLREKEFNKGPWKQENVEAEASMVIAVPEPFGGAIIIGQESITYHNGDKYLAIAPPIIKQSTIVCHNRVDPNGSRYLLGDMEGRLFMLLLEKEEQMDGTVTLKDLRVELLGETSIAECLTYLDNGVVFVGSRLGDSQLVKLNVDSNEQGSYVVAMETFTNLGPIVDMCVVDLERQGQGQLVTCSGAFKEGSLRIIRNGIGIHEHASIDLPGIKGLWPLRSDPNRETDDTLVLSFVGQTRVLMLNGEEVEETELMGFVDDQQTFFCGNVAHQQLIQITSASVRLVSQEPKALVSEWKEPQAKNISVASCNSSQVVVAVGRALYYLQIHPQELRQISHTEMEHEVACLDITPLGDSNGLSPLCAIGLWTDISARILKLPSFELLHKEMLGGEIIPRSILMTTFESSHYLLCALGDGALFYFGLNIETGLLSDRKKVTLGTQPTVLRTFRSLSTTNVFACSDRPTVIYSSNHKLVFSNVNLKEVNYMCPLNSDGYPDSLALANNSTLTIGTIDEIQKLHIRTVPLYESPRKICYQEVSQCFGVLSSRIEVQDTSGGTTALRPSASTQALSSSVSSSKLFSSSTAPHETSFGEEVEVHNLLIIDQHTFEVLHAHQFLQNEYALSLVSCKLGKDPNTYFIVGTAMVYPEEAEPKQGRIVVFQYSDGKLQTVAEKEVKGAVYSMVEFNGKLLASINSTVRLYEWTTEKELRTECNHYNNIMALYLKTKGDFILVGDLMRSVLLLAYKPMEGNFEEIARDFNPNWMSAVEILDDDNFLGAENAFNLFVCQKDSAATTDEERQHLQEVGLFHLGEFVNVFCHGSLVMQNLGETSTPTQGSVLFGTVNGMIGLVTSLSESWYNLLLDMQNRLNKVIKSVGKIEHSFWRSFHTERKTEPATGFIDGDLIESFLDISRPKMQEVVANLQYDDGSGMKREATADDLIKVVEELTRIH

A word on the inhibition: it is the share of the control response that was lost under treatment. A lower inhibition goes with little suppression. The term IC50 denotes the midpoint of a concentration-inhibition curve. The low end stands for inhibition by little substance, the high end for a need for much substance. In the case of `O=C1CCC(n2ncc3cc(CNC(=O)C4=Cc5cc(-c6ccccc6)ccc5OC4)ccc3c2=O)C(=O)N1` (stereo not drawn) [Compound T-18, N-((2-(2,6-Dioxopiperidin-3-yl)-1-oxo-1,2-dihydrophthalazin-6-yl)methyl)-6-phenyl-2H-chromene-3-carboxamide], on GSPT1 protein, the inhibition at 0.2 µM was at least 70%. The IC50 in the assay on KG-1 cells was at most 30 nM.
For `O=C1CCC(n2ncc3cc(CNC(=O)C4=Cc5c(cccc5C(F)(F)F)OC4)ccc3c2=O)C(=O)N1` (stereo not drawn) [Compound T-15, N-((2-(2,6-Dioxopiperidin-3-yl)-1-oxo-1,2-dihydrophthalazin-6-yl)methyl)-5-(trifluoromethyl)-2H-chromene-3-carboxamide] the same measures were at least 70% and at most 30 nM.
For `O=C1CCC(n2ncc3cc(NC(=O)C4=Cc5cccc(OC(F)(F)F)c5OC4)ccc3c2=O)C(=O)N1` (stereo not drawn) [Compound T-28, N-(2-(2,6-Dioxopiperidin-3-yl)-1-oxo-1,2-dihydrophthalazin-6-yl)-8-(trifluoromethoxy)-2H-chromene-3-carboxamide] the same measures were 30 to 70% and 30 to 300 nM.
`O=C1CCC(n2ncc3cc(CNC(=O)C4=Cc5cc(Cl)ccc5OC4)ccc3c2=O)C(=O)N1` (stereo not drawn) [Compound T-13, 6-Chloro-N-((2-(2,6-dioxopiperidin-3-yl)-1-oxo-1,2-dihydrophthalazin-6-yl)methyl)-2H-chromene-3-carboxamide] yielded an inhibition at 0.2 µM against GSPT1 protein of 30 to 70%. The IC50 with KG-1 cells lay in the range of 30 to 300 nM.
On GSPT1 protein, `COc1ccc2c(c1)C=C(C(=O)NCc1ccc3c(=O)n(C4CCC(=O)NC4=O)ncc3c1)CO2` (stereo not drawn) [Compound T-8, N-((2-(2,6-Dioxopiperidin-3-yl)-1-oxo-1,2-dihydrophthalazin-6-yl)methyl)-6-methoxy-2H-chromene-3-carboxamide] gave an inhibition at 0.2 µM of 30 to 70%. In the assay on KG-1 cells, this molecule gave a half-inhibitory concentration (IC50) of 30 to 300 nM.
For `O=C1CCC(n2ncc3cc(NC(=O)C4=Cc5ccccc5OC4)ccc3c2=O)C(=O)N1` (stereo not drawn) [Compound T-25, N-(2-(2,6-Dioxopiperidin-3-yl)-1-oxo-1,2-dihydrophthalazin-6-yl)-2H-chromene-3-carboxamide] the same measures were below 30% and 30 to 300 nM.
